Literature values as cited in patent US20020032197A1 (priority 1998, published 2002).

Key:
[1] = test system: young healthy adults; details: 5 mg dose
[2] = test system: women with PMDD
[3] = test system: individuals with RSBD; details: in vivo
[4] = test system: healthy volunteers exposed to an acute nociceptive stimulus; details: single oral dosing, 10 healthy volunteers
[5] = test system: women with PMS; details: in vivo
[6] = biological target: T1, MAO-A (Homo sapiens, UniProt P21397)
T1 sequence (P21397 1-527): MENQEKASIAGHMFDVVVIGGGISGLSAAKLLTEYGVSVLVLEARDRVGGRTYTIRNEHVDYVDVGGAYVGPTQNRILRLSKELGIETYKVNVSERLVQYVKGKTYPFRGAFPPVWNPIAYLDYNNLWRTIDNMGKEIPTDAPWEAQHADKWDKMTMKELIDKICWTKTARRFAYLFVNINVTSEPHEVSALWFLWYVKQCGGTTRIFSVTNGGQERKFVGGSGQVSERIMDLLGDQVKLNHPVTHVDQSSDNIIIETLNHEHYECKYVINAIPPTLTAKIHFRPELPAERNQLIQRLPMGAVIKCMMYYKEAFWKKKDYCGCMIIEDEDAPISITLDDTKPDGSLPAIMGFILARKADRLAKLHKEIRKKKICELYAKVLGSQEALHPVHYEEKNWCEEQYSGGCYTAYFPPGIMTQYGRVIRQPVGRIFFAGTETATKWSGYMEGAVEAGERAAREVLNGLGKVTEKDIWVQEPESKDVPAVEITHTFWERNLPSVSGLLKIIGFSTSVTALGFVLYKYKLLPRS

[7] = biological target: T1, MAO-A; details: ex vivo
[8] = test system: dopaminergic receptors; details: in vitro
[9] = test system: adrenergic receptors; details: in vitro
[10] = test system: benzodiazepine receptors; details: in vitro
[11] = test system: opioid receptors; details: in vitro
[12] = test system: monoamine metabolism; details: humans
[13] = doses as high as 600 mg daily
[14] = test system: sleep of healthy volunteers
[15] = biological target: T1, MAO-A; remark: listed apart in the source
[16] = test system: PTSD patients
[17] = fluoxetine, bupropion and placebo compared

For `COc1ccc2[nH]cc(CCNC(C)=O)c2c1` [Melatonin], the “sleep propensity and duration of sleep” value [1] is listed as “increased sleep propensity and the duration of sleep”.
For `CC(NC(C)(C)C)C(=O)c1cccc(Cl)c1` (stereo not shown) [bupropion], the “efficacy and patient satisfaction in women with PMDD” value [2, 17] is listed as “some improvement”.
In the case of `O=C1CN=C(c2ccccc2Cl)c2cc([N+](=O)[O-])ccc2N1` [clonazepam], the “cases of RSBD in which effective” value [3] is given as “approximately 90%”.
In the case of `CNCCCN1c2ccccc2CCc2ccccc21` [desipramine], the antinociceptive effect [4] is given as “antinociceptive effect”.
In the case of `CNCCC(Oc1ccc(C(F)(F)F)cc1)c1ccccc1` (stereo not shown) [fluoxetine], the “efficacy and patient satisfaction in women with PMDD” value [2, 17] is given as “greater”, the “tolerability in women with PMDD” value [2, 17] is given as “well tolerated” and the “treatment of a range of symptoms in women with PMS” value [5] is given as “effective and well-tolerated”.
For `COCCCC/C(=N\OCCN)c1ccc(C(F)(F)F)cc1` [fluvoxamine], the antinociceptive effect [4] is given as “antinociceptive effect”.
For `O=C(NCCN1CCOCC1)c1ccc(Cl)cc1` [moclobemide, p-chloro-N-(2-morpholinoethyl)-benzamide], the “in vitro binding to MAO-A” value [6] is given as “weak”, the “time to recovery of enzyme activity (reversible binding)” value [7] is given as at most 16 h and the “affinity for dopaminergic receptors” value [8] is given as “no appreciable affinity”. The “affinity for adrenergic receptors” value [9] was “no appreciable affinity”, the “affinity for benzodiazepine receptors” value [10] was “no appreciable affinity” and the “affinity for opioid receptors” value [11] was “no appreciable affinity”. For the same molecule, the “plasma levels of homovanillic acid, 3,4-dihydroxyphenylacetic acid, 3-methoxy-4-hydroxyphenylglycol and 5-hydroxyindoleacetic acid” value [12] was “reductions”, the bioavailability (after multiple administrations) was “approx. 85%” and the “number of different metabolites” value (in vivo) was “at least 19”. For the same molecule, the elimination (patients with hepatic dysfunction) was “impaired”, the absorption (single-dose oral administration) was “almost completely absorbed” and the tolerability [13] was “well-tolerated”. The “effects on sleep in comparison to other MAO inhibitors” value [14] was “weak” and the antinociceptive effect [4] was “antinociceptive effect”.
In the case of `O=C(NCC[N+]1([O-])CCOCC1)c1ccc(Cl)cc1` [moclobemide-N-oxide, p-chloro-N-(2-morpholinoethyl)-benzamide-N′-oxide], the MAO-A inhibitory activity [15] is listed as “MAO-A inhibitory activity”.
In the case of `NNCCc1ccccc1` [phenelzine], the “reduction of PTSD symptoms versus placebo” value ([16]; Frank et al.) is given as “superior to placebo”, the PTSD patients helped ([16]; open trial (Davidson et al.)) is given as 8 of 11 and the “response of patients with traumatic war neuroses” value ([16]; open trial, 5 patients, after failing antipsychotics, tricyclics and psychotherapy) is given as “responded positively”. The “clinical improvement in PTSD patients” value ([16]; treated openly for 4 to 18 weeks (Lerer et al.)) was “only modest clinical improvement”.
In the case of `CN[C@H]1CC[C@@H](c2ccc(Cl)c(Cl)c2)c2ccccc21` [sertraline], the “treatment of PMDD, symptomatic improvement and change in reported functional impairment” value ([2]; versus placebo) is given as “significantly better than placebo”.
